# Data as given in PubChem BioAssay AID1508591.
# Conditions: rat; liver microsomes; pH 7.4; 15.0 min; 1.0 µM
row,Compound,half-life [min]
1,NC[C@H](O)c1ccc(O)c(O)c1,13.4
2,COc1cccc(CNc2ccc(S(=O)(=O)Nc3ncc(-c4ccccc4)s3)cc2)c1O,> 30
3,CCCN(CCC)CCc1cccc2c1CC(=O)N2,2.96
4,CCOc1ccccc1C(=O)Nc1cccnc1C(=O)Nc1cccc(S(=O)(=O)C(F)(F)F)c1,> 30
5,Cc1ccccc1NC(=O)Nc1cccs1,> 30
6,CNC(=O)c1ccc(-c2cnc3cnc(C(=O)N(C)c4ccc(Cl)cc4)cn23)cc1,> 30
7,FC(F)(F)c1ccc(N2CCN(C(=S)Nc3ccccn3)CC2)cc1,> 30
8,O=C(Nc1ccc(S(=O)(=O)Nc2nccs2)cc1)c1cccc2ccccc12,> 30
9,CNC(=O)C1CCN(C(=O)c2ccc(-c3ncc4cnc(-c5ccccc5)cn34)cc2)CC1,> 30
10,CN1CC(CNC(=O)OCc2ccccc2)C[C@H]2c3cccc4c3c(cn4C)CC21 (stereo not given in full),14.3
11,CCOc1ccc(/C=C/c2nc3ccccc3n2S(=O)(=O)c2cccc(Cl)c2)cc1,> 30
12,CSc1ccccc1-c1ccc(Nc2nc(-c3ccncc3)nc3ccccc23)cc1F,5.1
13,CC(C(O)c1ccc(O)cc1)N1CCC(Cc2ccccc2)CC1 (stereo not given),2.55
14,O=S(=O)(Nc1cccc2ccccc12)c1ccc(NCc2ccc(Br)cc2O)cc1,7.4
15,Cc1cccc(S(=O)(=O)c2cn(Cc3ccccc3)c3cc(N4CCCCC4C)c(F)cc3c2=O)c1 (stereo not given),2
16,CCOc1ccc(CCNC(=O)c2cc3sccc3n2Cc2ccc(-n3cncn3)cc2)cc1OCC,4.3
17,CCOC(=O)C1CCN(C(=O)C(C)(C)NC(=O)Nc2ccc(Cl)cc2Cl)CC1,1.36
18,Cc1ccc(Nc2nc(NCCO)c3ccccc3n2)cc1C,2.42
19,NC(=O)C1CCN(c2nc(-c3ccc(Cl)cc3)cs2)CC1,3.09
20,CCOc1ccc(CCNC(=O)c2cc3cnccc3n2Cc2cccc(C)c2)cc1OCC,6.9
21,CCCCn1cc2c(c1-c1ccc(Br)cc1)c(=O)n(C)c(=O)n2C,7.68
22,COc1ccc(-n2nc(C3CCCN(C(=O)Nc4ccccc4)C3)[nH]c2=O)cc1 (stereo not given),> 30
23,O=C1Nc2ccc(Cl)cc2/C1=C\c1cc(Cl)c(O)c(Cl)c1,> 30
24,Fc1ccc(Cl)cc1-c1nc(Nc2ccncc2)c2nccnc2n1,15.9
25,N#Cc1ccc(NS(=O)(=O)c2ccc(NC(=O)Cc3ccc(F)c(Cl)c3)cc2)cc1,> 30
26,CC(C)c1ccccc1-c1ncc(F)c(NCC2CCN(c3cnccn3)C2)n1 (stereo not given),2.2
27,Cc1ccc(S(=O)(=O)n2cc(C(=O)Nc3ccc(-c4ccccc4)cc3)c3ccccc32)cc1,14

row,Compound,half-life [min]
1,COC[C@@H]1CN(C(=O)c2nn(C)c3ccccc23)C[C@H]1c1nc(C)no1,25.7
2,COc1ccc(S(=O)(=O)N(C(=O)C(C)C)c2ccc3oc(=O)sc3c2)cc1,2.2
3,Cn1cc(C2=C(c3cn(C)c4cc([N+](=O)[O-])ccc34)C(=O)NC2=O)c2ccccc21,4.05
4,N#CC1CCN(c2nc(-c3ccc(Br)cc3)cs2)CC1,24.7
5,Cc1nn2c(c1-c1ccccc1-c1ccccc1)N(Cc1ccc(O)cc1)CCC2,1.97
6,Cc1cc(NS(=O)(=O)c2ccc(N(C)C(=O)Cc3ccc(Cl)c(Cl)c3)cc2)no1,> 30
7,COc1ccc(-n2nc(C3CCCN(C(=O)Cc4ccccn4)C3)[nH]c2=O)cc1 (stereo not given),> 30
8,Cc1ccc(S(=O)(=O)Nc2cc(C)ccc2C(=O)Nc2nc(-c3ccccc3)cs2)cc1,2.5
9,CCN1C(=O)c2ccccc2[S@](=O)c2ccc(C(=O)NCc3ccc(C#N)cc3)cc21,21
10,Cc1cnc(CNc2nc(-c3ccccc3Cl)nc3ccccc23)cn1,20
11,Cc1ccc(Cl)cc1NS(=O)(=O)c1cc2c(cc1F)NC(=O)CC2,4.97
12,CN1CCN(c2cc(-c3nc(Nc4ccc(F)c(F)c4)c4ccccc4n3)ccn2)CC1,5.3
13,Fc1ccc(Nc2ccnc(-c3ccncc3)n2)cc1F,13
14,N#Cc1cccc(-c2csc(N3CCC(C(N)=O)CC3)n2)c1,1.74
15,COc1cccc(O)c1CNc1ccc(S(=O)(=O)Nc2nccs2)cc1,8.9
16,Fc1ccc(Nc2nc(Nc3ccncc3)nc3ccccc23)cc1F,> 30
17,CC1=C(C(=O)Nc2nnc(-c3ccccc3)s2)C(c2[nH]ncc2Cl)N=C(Nc2nc3ccccc3o2)N1 (stereo not given),11
18,CCN1CCN(c2ccc3cc(S(=O)(=O)N4CCOCC4)ccc3n2)CC1,16
19,Cc1cccc(-c2csc(N3CCC(C(N)=O)CC3)n2)c1,1.66
20,COc1cccc(CNC(=O)c2c(OC)cc(=O)n3c2CCN(C(=O)c2ccc(C)cc2C)CC3)c1,5.9
21,COc1ccc(CN2C(=O)[C@@H]3C[C@@H](CN3Cc3cccs3)Oc3ccccc32)cc1,1.2
22,O=C1CCCC2=C1C(c1[nH]ncc1Cl)N=C(Nc1nc3ccc(F)cc3o1)N2 (stereo not given),14
23,Fc1cc(Nc2nc(-c3ccncc3)nc3ccccc23)ccc1-c1cccnc1,17
24,COc1ccc(Cl)cc1C(=O)Nc1ccc(NC(=O)c2ccco2)cc1,> 30
25,O=C(CCCN1CCC(n2c(=O)[nH]c3ccccc32)CC1)c1ccc(F)cc1,10.9
26,COc1ccc(CCNc2ncnc3c2c(-c2ccccc2)cn3-c2cccc(Cl)c2)cc1OC,2.33
27,O=S(=O)(Nc1ccccc1)c1ccc(NCc2ccc(Br)cc2O)cc1,2

row,Compound,half-life [min]
1,O=c1c2c([nH]c3ccc(Br)cc13)CCCC2,15.9
2,O=C(Nc1cccnc1)c1cccs1,> 30
3,O=C(NCCCNc1nc(Nc2cccc(CN3CCOCC3)c2)ncc1C1CC1)C1CCC1,6.85
4,CCn1c(SCc2ccc(C#N)cc2)nnc1-c1cccc(Cl)c1,3
5,COc1ccc(-c2ccc3nc(-c4cc(F)cc(F)c4F)oc3c2)c(OC)c1OC,> 30
6,COC(=O)c1sccc1NC(=O)c1sccc1C,1.46
7,Cc1ccc(-c2cc(C(=O)Nc3ccccn3)c3ccccc3n2)cc1,23.8
8,Fc1ccc(CNc2cc3c(cn2)CN(Cc2ccncc2)CCN3)cc1,15.9
9,O=C(Nc1ccc(Cl)cc1)Nc1ccc(Cl)c(Cl)c1,> 30
10,O=C(c1ccc2ncccc2c1)N1CCc2c(nc3cc[nH]n3c2=O)C1,> 30
11,Cc1ccc(NC2=C(c3ccc(C(F)(F)F)cc3)C(=O)c3ccccc32)cc1C,5.08
12,CC(C)Oc1ccccc1C(=O)Nc1nc(-c2ccccc2)cs1,9
13,Cc1cc(Nc2ccc(Br)c(C)c2)n2nc(C)nc2n1,6.7
14,O=C1CCCC2=C1C(c1ccncc1Br)N=C(Nc1nc3ccccc3o1)N2 (stereo not given),6.5
15,C=CC(=O)N1CCCN(c2cc(NCCC(=O)O)nc(-c3ccccn3)n2)CC1,> 30
16,Cc1cc(N)c2cc(NC(=O)Nc3ccc4nc(C)cc(N)c4c3)ccc2n1,> 30
17,COc1ccccc1N1CCN(C2CCCCC2NS(=O)(=O)c2ccccc2)CC1 (stereo not given),1.69
18,Cc1ccc(S(=O)(=O)Nc2ccccc2C(=O)Nc2nc(-c3ccccc3)co2)cc1,3.9
19,Fc1ccc(Nc2nc(-c3ccnc(N4CCCCC4)c3)nc3ccccc23)cc1F,26
20,Nc1scc2c(C(=O)O)nn(-c3ccccc3)c(=O)c12,> 30
21,COc1cc2c(C(=O)N3CCN(c4cccc(C(F)(F)F)c4)CC3)cn(CC(C)C)c(=O)c2cc1OC,3.15
22,Cn1ccc2c(C(=O)NCc3cccnc3)nc(-c3ccccc3C#N)cc21,5.52
23,Cc1ccc(S(=O)(=O)Nc2cnccc2C(=O)Nc2ccccc2)cc1,2.6
24,CCN1C(=O)c2ccccc2S(=O)c2ccc(C(=O)NCc3ccc(OC)cc3)cc21 (stereo not given),7.8
25,COc1ccc(C(=O)NC2CCCc3c2[nH]c2c(Cl)cccc32)cc1OC (stereo not given),22.4
26,Cc1nc(-c2ccccc2)cc([C@H]2CN3CC[C@H]2C[C@@H]3CNC2CCOCC2)n1,> 30
27,COc1cc(N2CCC(N3CCN(C)CC3)CC2)ccc1Nc1ncc(Cl)c(Nc2ccccc2P(C)(C)=O)n1,> 30

row,Compound,half-life [min]
1,Cc1ccc2oc(NC3=NC(c4[nH]ncc4Cl)C4=C(CCCC4=O)N3)nc2c1 (stereo not given),1.7
2,CCOC(=O)C1CCN(C(=O)C2(NC(=O)Nc3ccccc3Cl)CCC2)CC1,1.7
3,O=C1Nc2ccccc2/C1=C\c1ccc([N+](=O)[O-])cc1,4.92
4,CC1(C)CC2CC(C)(CN2S(=O)(=O)c2ccc(C(=O)Nc3ccc(Cl)cc3)cc2)C1 (stereo not given),2.3
5,CCCc1oc2ccc(NS(=O)(=O)c3ccc(OC)cc3)cc2c1C(=O)OCC,1.37
6,Cn1ccc2c(C(=O)NCCC(N)=O)nc(-c3cccc(CO)c3)cc21,> 30
7,COc1ccc(NC(=O)c2[nH]c(C)c(C(C)=O)c2C)cc1,> 30
8,COC(=O)CNC(=O)c1nc(-c2ccc([S+](C)(=O)[O-])cc2)c2ccccn12,> 30
9,FC(F)(F)c1ccccc1-c1nc(NCc2ccc(-c3cccnc3)cc2)c2ccccc2n1,9.18
10,CCN(CC)C(=O)c1coc(COc2ccc3c(c2)C(c2cccc(F)c2)N(C(=O)C(C)C)CC3)n1 (stereo not given),1.28
11,O=C1CCCC2=C1C(c1[nH]ncc1Cl)N=C(Nc1nc3c(Br)cccc3o1)N2 (stereo not given),3.2
12,COc1ccc(-n2c(C)cc(C3=NNC(=NC4CC4)SC3)c2C)cc1,11.8
13,Cc1ccc(S(=O)(=O)N[C@@H](Cc2ccccc2)C(=O)CCl)cc1,2.36
14,COc1ccccc1N1CCN(CCN(C(=O)c2ccc(I)cc2)c2ccccn2)CC1,1.49
15,c1coc(-c2nc3ccncc3[nH]2)c1,> 30
16,NS(=O)(=O)c1ccc(NC(=O)c2cc3ncccn3n2)cc1,> 30
17,COc1ccc(NC(=O)c2c(C)cccc2C)cc1[S+](=O)([O-])N1CCCCC1,4.2
18,CC(=O)c1c(C)[nH]c(C(=O)Nc2ccc(C)c(S(=O)(=O)Nc3ccc(Br)cc3)c2)c1C,19
19,COc1ccc(Nc2cnc3ccc(-c4ccc(OC)c(OC)c4)nn23)cc1,6.77
20,CC[C@@](C)(Nc1ccnc(-c2c[nH]c3ncccc23)n1)C(=O)NCC(F)(F)F,27.8
21,CC1=NN(c2ccc(C(=O)O)cc2)C(=O)/C1=C/c1ccc(-c2cc(C)c(C)cc2[N+](=O)[O-])o1,22.2
22,Cc1ccccc1C(=O)n1ccc2cc(-c3nc(NC(=O)Cc4ccc5c(c4)OCO5)sc3C)ccc21,> 30
23,NC(CO)(CO)CCc1ccc(Sc2cccc(OCc3ccccc3)c2)cc1Cl,> 30
24,Cc1cnc(-c2ccccc2C(F)F)nc1NCC1CN(c2cnccn2)C1,1.8
